According to patent US20230165252A1, “ACTIVE COMPOUND COMBINATIONS” (Bayer Aktiengesellschaft, priority 2020, published 2023):

Experiments:
[1] = Measurement of Log P values by HPLC on reversed phase columns (EEC directive 79/831 Annex V.A8), methods [a], [b], [c]; format: physicochemical; conditions: method [a]
Protocol: Measurement of Log P values as provided herein was performed according to EEC directive 79/831 Annex V.A8 by HPLC (High Performance Liquid Chromatography) on reversed phase columns with the following methods: • ^[a]

[2] = system: Alternaria alternate; test: in vitro-Test with Alternaria alternate (microtiter growth inhibition); format: cell-based; conditions: alone
Protocol: (§1) The degree of efficacy expressed in % is denoted: 0% means an efficacy, which corresponds to that of the control, while an efficacy of 100% means that no disease is observed.
(§2) If the actual fungicidal activity exceeds the calculated value, then the activity of the combination is super-additive, i.e. a synergistic effect exists. In this case, the efficacy, which was actually observed, must be greater than the value for the expected efficacy (E), that was calculated from the abovementioned formula.
(§3) Example: In Vitro-Test with Fungal Microorganisms
(§4) Wells of 96-well microtiter plates are filled with 10 μl of a preparation of test compound or compound combination in methanol+emulsifier alkylaryl-polyglycol-ether. Thereafter, the solvent is evaporated in a hood. At the next step, 100 μl of liquid potato dextrose medium is given into each well, that has been amended with an appropriate concentration of spores or mycelium suspension of the test fungus.
(§5) With the aid of a photometer, the extinction in all wells is measured at the wavelength of 620 nm.
(§6) The microtiter plates are incubated at 20° C. and 85% relative humidity. The inhibition of growth is determined again photometrically 3-5 days after the application. Efficacy is calculated in relation to the untreated control, 0% efficacy means fungal growth as high as in untreated control while 100% efficacy means no fungal growth is measured.

[3] = system: Parastagonospora nodorum; test: in vitro-Test with Parastagonospora nodorum (microtiter growth inhibition); format: cell-based
Protocol: as §1, §2, §3, §4, §5, §6

O=C(NCCc1ccc2c(c1)OCCO2)c1cc(Cl)nnc1Oc1cccc(C(F)(F)F)c1 [I-573]
LogP [1]: 3.53^[a]

C#Cc1cc(C(=O)NCC(F)(F)c2ccc(C)cc2C)c(Oc2cccc(C(F)(F)F)c2)nn1 [I-577]
LogP [1]: 4.31^[a]

O=C(NCC(F)(F)c1ccc(Cl)cc1Cl)c1cc(Cl)nnc1Oc1cccc(C2CC2)c1F [I-598]
LogP [1]: 4.71^[a]

Cc1ccc(C2(CNC(=O)c3cc(Cl)nnc3Oc3cccc(C(F)(F)F)c3)CC2)cc1 [I-601]
LogP [1]: 4.58^[a]

O=C(NCC(F)(F)Oc1ccc(C(F)(F)F)cc1Cl)c1cc(Cl)nnc1Oc1cccc(C(F)(F)F)c1 [I-633]
LogP [1]: 4.58^[a]

O=C(NCCc1ncc(Cl)cn1)c1cc(Cl)nnc1Oc1cccc(C(F)(F)F)c1 [I-635]
LogP [1]: 3.05^[a]

COCCc1c(C2CC2)nnc(Oc2cccc(C(F)(F)F)c2)c1C(=O)NCC(F)(F)c1ccc(C)cc1C [I-636]
LogP [1]: 4.57^[a]

Cc1c(C2CC2)nnc(Oc2cccc(C(F)(F)F)c2)c1C(=O)NCC(F)(F)c1ccc(Cl)cc1Cl [I-642]
LogP [1]: 4.43^[a]

Cc1ccc(C(F)(F)CNC(=O)c2c(Oc3cccc(C(F)(F)F)c3)nnc(C3CC3)c2NC2CC2)c(C)c1 [I-650]
LogP [1]: 4.10^[a]

Cc1ccc(C(F)(F)CNC(=O)c2cc(CCC#N)nnc2Oc2cccc(C(F)(F)F)c2)c(C)c1 [I-662]
LogP [1]: 3.78^[a]

C=CCOc1c(Cl)nnc(Oc2cccc(C(F)(F)F)c2)c1C(=O)NCC(F)(F)c1ccc(C)cc1C [I-684]
LogP [1]: 4.87^[a]

Cc1cnn(CCNC(=O)c2cc(C)nnc2Oc2cccc(C(F)(F)F)c2)c1 [I-691]
LogP [1]: 2.58^[a]

CON(CCc1ccc(Cl)cc1Cl)C(=O)c1c(Oc2cccc(C3CC3)c2F)nnc(Cl)c1C [I-739]
LogP [1]: 5.36^[a]

CNc1c(Cl)nnc(Oc2cccc(C3CC3)c2F)c1C(=O)NCCc1ccc(Cl)cc1Cl [I-757]
LogP [1]: 4.09^[a]

Cc1ccc(C(F)(F)CNC(=O)c2cc(Cl)nnc2Oc2ccc3[nH]ccc3c2)c(C)c1 [I-769]
LogP [1]: 3.78^[a]

C=C(C)OC(=O)N(CC(F)(F)c1ccc(C)cc1C)C(=O)c1cc(Cl)nnc1Oc1cccc(C(F)(F)F)c1 [I-785]
LogP [1]: 5.51^[a]

COCCc1cc(C(=O)NCC(F)(F)c2ccc(C)cc2C)c(Oc2cccc(C(F)(F)F)c2)nn1 [I-796]
LogP [1]: 4.00^[a]

Cc1ccc(C(F)(F)CNC(=O)c2cc(Cc3ccccc3)nnc2Oc2cccc(C(F)(F)F)c2)c(C)c1 [I-797]
LogP [1]: 4.95^[a]

Cc1ccc(C(F)(F)CNC(=O)c2cc(CC3CCC3)nnc2Oc2cccc(C(F)(F)F)c2)c(C)c1 [I-798]
LogP [1]: 5.02^[a]

Cc1ccc(C(F)(F)CNC(=O)c2c(Oc3cccc(C(F)(F)F)c3)nnc(Cl)c2NCCC2CC2)c(C)c1 [I-809]
LogP [1]: 4.95^[a]

O=C(NCC(F)(F)c1cc(Cl)sc1Cl)c1cc(Cl)nnc1Oc1cccc(C(F)(F)F)c1 [I-825]
LogP ([1]; HPLC on reversed phase column): 4.73^[a]

Cn1cc(C(=O)Nc2ccc(F)cc2-c2ccc(Cl)c(Cl)c2)c(C(F)F)n1 [bixafen]
Efficacy % ([2]; 0.04 ppm): 79%
Efficacy % ([2]; 0.2 ppm): 81%
Efficacy % ([2]; 1.0 ppm): 86%
Efficacy ([3]; 0.2 ppm): 34%
Efficacy ([3]; 1.0 ppm): 41%
